Data on 34 compounds can be found in article PMC6680850, “Anion Inhibition Profile of the β-Carbonic Anhydrase from the Opportunist Pathogenic Fungus Malassezia restricta Involved in Dandruff and Seborrheic Dermatitis” (Metabolites, 2019).

Assay [1] deals with β-CA from Malassezia restricta (MreCA) (Malassezia restricta, UniProt A0A3G2S4B9). Put plainly: biochemical. The assay is classed as biochemical.
Assay [2] concerns the target β-CA from Malassezia globosa (MgCA). Set-up: method as in PMID 29152053. Particulars: cited from earlier work.
In another assay the target is hCA I. The note with it: cited from earlier work.
A further assay deals with hCA II. Particulars: cited from earlier work; for Ki: pH 8.3.
Where [3] appears, read: CO2 hydration reaction, 20 °C, pH 8.3, stopped flow, ref [31].

Where a name gives a salt, the structure may show the parent alone. Read-outs that look alike come from different tables or passages of the source.

β-CA from Malassezia restricta (MreCA), sequence (A0A3G2S4B9 1-238): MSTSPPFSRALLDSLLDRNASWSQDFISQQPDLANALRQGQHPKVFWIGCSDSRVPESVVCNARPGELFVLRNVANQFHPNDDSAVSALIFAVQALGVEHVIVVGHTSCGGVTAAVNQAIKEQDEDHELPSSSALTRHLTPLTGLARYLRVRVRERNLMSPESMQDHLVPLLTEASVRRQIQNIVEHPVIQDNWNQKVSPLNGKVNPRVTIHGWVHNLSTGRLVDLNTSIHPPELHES

As a reminder, the Ki is the equilibrium dissociation constant of an inhibitor or competing ligand from its target. For the compound `OB1OB2OB(O)OB(O1)O2` [B4O7^2−, tetraborate], the inhibitory constant (Ki) is 0.4 mM in assay [1] (pH 8.3, read-out: KI MreCA) and 8.45 mM in assay [2] (pH 8.3).
Turning to `[Br-].[K+]` [Br^−, bromide], the Ki in assay [1] (pH 8.3, read-out: KI MreCA) is above 50 mM; in assay [2] (pH 8.3), 18.6 mM; at hCA I (pH 8.3), 4 mM; on hCA II, 63 mM.
Turning to `O=S(=O)(O)C(F)(F)F` [CF3SO3^−, trifalate], the inhibition constant (Ki) in assay [1] (pH 8.3, read-out: KI MreCA) is 4.5 mM; in assay [2] (setting [3]), 2.28 mM.
For `N#CO` [CNO^−, cyanate], the Ki in assay [1] (pH 8.3, read-out: KI MreCA) is above 50 mM; in assay [2] (pH 8.3) it was 6.81 mM.
With `O=C(O)O` [CO3^2, carbonate], the Ki in assay [1] (pH 8.3, read-out: KI MreCA) is above 50 mM; in assay [2] (pH 8.3) it was above 100 mM.
As for `S=C(S)S` [CS3^2−, trithiocarbonate], the Ki in assay [1] (pH 8.3, read-out: KI MreCA) was 0.92 mM; in assay [2] (setting [3]), 1.77 mM; at hCA I (setting [3]), 0.0087 mM.
For the compound `[O-][Cl+3]([O-])([O-])O` [ClO4^−, perchlorate], the Ki in assay [1] (pH 8.3, read-out: KI MreCA) is 9.2 mM; in assay [2] (pH 8.3) it was above 100 mM.
For the compound `Cl` [Cl^−, chloride], the inhibition constant (Ki) is above 50 mM in assay [1] (pH 8.3, read-out: KI MreCA); 7.98 mM in assay [2] (pH 8.3); 6 mM at hCA I (pH 8.3).
`CCN(CC)C(=S)S` [Et2NCS2^−, diethyldithiocarbamate]: the Ki in assay [1] is 0.075 mM; in assay [2] (setting [3]), 0.3 mM; at hCA I (setting [3]), 0.00079 mM.
For the compound `F` [F^−, fluoride], the inhibition constant (Ki) was above 50 mM in assay [1] (pH 8.3, read-out: KI MreCA) and 7.13 mM in assay [2] (pH 8.3).
Regarding `O=C(O)O` [HCO3^−, bicarbonate], the inhibitory constant (Ki) is 0.86 mM in assay [1] (pH 8.3, read-out: KI MreCA) and 0.59 mM in assay [2] (pH 8.3).
Regarding `O=S(O)O` [HSO3^−, bisulfite], the Ki in assay [1] (pH 8.3, read-out: KI MreCA) is above 50 mM; in assay [2] (setting [3]), above 100 mM; on hCA I (setting [3]), 18 mM.
In the case of `I` [I^−, iodide], the inhibition constant Ki in assay [1] (pH 8.3, read-out: KI MreCA) is 8.6 mM; in assay [2] (setting [3]) it was 8.73 mM; on hCA I (setting [3]) it was 0.3 mM.
On to `NS(N)(=O)=O` [Inhibitor H2NSO2NH2, sulfamide], for which the Ki in assay [1] (pH 8.3, read-out: KI MreCA) was 0.72 mM; in assay [2] (setting [3]), 0.094 mM.
For the compound `[N-]=[N+]=[N-]` [N3^−, azide], the Ki in assay [1] (pH 8.3, read-out: KI MreCA) was above 50 mM; in assay [2] (pH 8.3), 45.2 mM. Further, the “inhibition of hCA II in words” value in the assay on hCA II was “well inhibited”.
`NS(=O)(=O)O` [NH2SO3H, sulfamic acid]: the inhibition constant Ki in assay [1] (pH 8.3, read-out: KI MreCA) was 7.7 mM; in assay [2] (setting [3]), 0.083 mM; on hCA I (setting [3]), 0.021 mM.
Regarding `O=S(=O)(O)NS(=O)(=O)O` [NH(SO3)2^2−, iminodisulfite], the Ki is above 50 mM in assay [1] (pH 8.3, read-out: KI MreCA); 21.4 mM in assay [2] (setting [3]); 0.31 mM at hCA I (setting [3]).
In the case of `O=NO` [NO2^−, nitrite], the inhibition constant Ki was above 50 mM in assay [1] (pH 8.3, read-out: KI MreCA) and 7.56 mM in assay [2] (pH 8.3).
Take `O=[N+]([O-])O` [NO3^−, nitrate]: the inhibition constant (Ki) in assay [1] (pH 8.3, read-out: KI MreCA) is 9 mM; in assay [2] (setting [3]) it was 8.13 mM; at hCA I (setting [3]) it was 7 mM.
For `O=P(O)(O)OP(=O)(O)O` [P2O7^2−, pyrophosphate], the inhibitory constant (Ki) was above 50 mM in assay [1] (pH 8.3, read-out: KI MreCA); 6.03 mM in assay [2] (setting [3]); 25.8 mM at hCA I (setting [3]).
Take `F[P-](F)(F)(F)(F)F` [PF6^−, esafluorofosfato]: the inhibition constant (Ki) in assay [1] (pH 8.3, read-out: KI MreCA) was 3.9 mM; in assay [2] (setting [3]), 6.47 mM.
For the compound `O=[As](O)(O)c1ccccc1` [PhAsO3H2, phenylarsonic acid], the Ki was 0.09 mM in assay [2] (pH 8.3), 31.7 mM on hCA I (pH 8.3) and 49.2 mM on hCA II.
In the case of `OB(O)c1ccccc1` [PhB(OH)2, phenylboronic acid], the Ki in assay [1] was 8.7 mM; in assay [2] (pH 8.3), 0.089 mM; on hCA I (pH 8.3), 58.6 mM. Besides, the “inhibition of hCA I in words” value with hCA I is on record as “not well inhibited”.
As for `[O]=[Re](=[O])(=[O])[OH]` [ReO4^−, perrhenate], the inhibition constant Ki in assay [1] (pH 8.3, read-out: KI MreCA) is above 50 mM; in assay [2] (setting [3]), 16.7 mM.
For the compound `[O]=[Ru](=[O])(=[O])=[O]` [RuO4^−, perruthenate], the inhibition constant Ki in assay [1] (pH 8.3, read-out: KI MreCA) was 7.4 mM; in assay [2] (setting [3]), 8.82 mM.
Turning to `O=S(=O)(O)OOS(=O)(=O)O` [S2O8^2−, peroxydisulfate], the Ki in assay [1] (pH 8.3, read-out: KI MreCA) is above 50 mM; in assay [2] (setting [3]), above 100 mM.
Take `N#CS` [SCN^−, thiocyanate]: the inhibition constant (Ki) in assay [1] (pH 8.3, read-out: KI MreCA) was above 50 mM; in assay [2] (pH 8.3), 8.39 mM.
In the case of `O=S(=O)(O)O` [SO4^2−, sulfate], the Ki in assay [2] (pH 8.3) is 19.5 mM.
As to `N#C[SeH]` [SeCN^−, selenocyanate], the inhibition constant Ki in assay [1] (pH 8.3, read-out: KI MreCA) was 0.65 mM; in assay [2] (pH 8.3) it was 1.73 mM; at hCA I (pH 8.3), 0.085 mM.
Take `O=[Se](=O)(O)O` [SeO4^2−]: the Ki is 1.7 mM in assay [1] (pH 8.3, read-out: KI MreCA) and 7.41 mM in assay [2] (pH 8.3).
As for `[O]=[Sn]([OH])[OH]` [SnO3^2−, stannate], the inhibition constant (Ki) in assay [1] (pH 8.3, read-out: KI MreCA) is 0.56 mM; in assay [2] (pH 8.3) it was 5.07 mM.
As for `O=[Te](=O)(O)O` [TeO4^2−, tellurate], the Ki in assay [1] (pH 8.3, read-out: KI MreCA) was 0.56 mM; in assay [2] (pH 8.3) it was 5.75 mM; on hCA I (pH 8.3), 0.66 mM.
For the compound `[O]=[V]([OH])([OH])[O][V](=[O])([OH])[OH]` [V2O7^2−, divanadate], the inhibition constant Ki in assay [1] (pH 8.3, read-out: KI MreCA) is above 50 mM; in assay [2] (setting [3]) it was 6.89 mM; on hCA I (setting [3]) it was 0.54 mM.
For osmate [OsO5^2−], the inhibitory constant (Ki) in assay [1] (pH 8.3, read-out: KI MreCA) was 8.5 mM; in assay [2] (pH 8.3), 6.16 mM.
